In PMC3032760, “Two-dose-level confirmatory study of the pharmacokinetics and tolerability of everolimus in Chinese patients with advanced solid tumors” (Journal of Hematology & Oncology, 2011):
Values joined by “and” are separate entries in the source; they are usually repeats but may differ in a detail not shown here. Identical values can stand only once. Like-named read-outs stand apart in the source and are kept apart here.

Legend:
Assay type in all cases: in vivo, human
[1] = Everolimus blood pharmacokinetics (24-h profile day 15, trough levels) in Chinese patients with advanced solid tumors; conditions: for Tmax / Cmax / AUC: human, whole blood; for Tmax: po, read-out: Tmax, median (range); for Cmax / AUC: n = 12, day 15, blood; for Cmax / AUC / Cmin (pre-dose trough concentration): mean (% coefficient of variation); for AUC: read-out: AUC0-τ; for CL/F, mean (± standard deviation): after reaching steady state; for Cmin (pre-dose trough concentration): n = 12, blood; for Time to steady-state levels: continuous daily dosing
Protocol: Blood samples for everolimus 24-h PK profile were collected on day 15 pre-dose and at 1, 2, 4, 6, 8, and 24 h post-dose; blood samples for everolimus trough concentration were collected pre-dose on days 2, 8, 16, and 22. Everolimus concentration was determined after liquid extraction by a liquid chromatography-mass spectroscopy method with lower limits of quantification for everolimus of 0.3 ng/mL. PK parameters of everolimus determined for each cohort included the maximum blood concentration (Cmax), minimum blood concentration (Cmin), time to maximum concentration (Tmax), area under the dosing curve (AUC0-τ), and total body apparent clearance of drug from the blood (CL/F). PK analyses were performed on all patients in the safety population with a sufficient number of evaluable blood samples.

[2] = Safety and tolerability: adverse events graded by NCI CTCAE v3.0; conditions: for Deaths during the study: considered unrelated to everolimus
Text: Safety assessments included incidence, severity, and treatment relationship of adverse and serious adverse events and the regular monitoring of hematology, serum and urine chemistry, vital signs, and physical condition. Adverse events were graded according to the National Cancer Institute's Common Terminology Criteria for Adverse Events, version 3.0 [22]. The safety population consisted of all patients who received ≥1 dose of study drug and had ≥1 post-baseline safety assessment.

advanced solid tumors = test: Tumor response and progression by RECIST; conditions: for Best overall tumor response stable disease, patients: n = 12; for Patients with stable disease: both cohorts, 6 patients per tumor type
Protocol: Tumor response and progression was assessed locally for all randomized patients using RECIST criteria. A computed tomography scan or magnetic resonance image of the chest, abdomen, and pelvis was performed at screening and every 2 months (±7 days) thereafter. Confirmatory imaging results ≥4 weeks after an initial observation were required for a positive assessment of complete or partial response.

[3] = Patient disposition at final analysis; conditions: n = 12
Protocol: Patients continued treatment until tumor progression, unacceptable toxicity, death, or discontinued if the investigator or patient felt it was in the patient's best interest to discontinue participation. Dose modifications were allowed in the event of adverse events grade ≥2. Specific nomograms were followed to manage patients who developed known toxicities of everolimus, such as non-infectious pneumonitis.
This final analysis was performed after all patients had received 6 months of study drug or had discontinued from the study.

[4] = 5 mg/day, n = 12, suspected relationship to everolimus
[5] = 10 mg/day, n = 12, suspected relationship to everolimus

CO[C@H]1C[C@@H]2CC[C@@H](C)[C@@](O)(O2)C(=O)C(=O)N2CCCC[C@H]2C(=O)O[C@H]([C@H](C)C[C@@H]2CC[C@@H](OCCO)[C@H](OC)C2)CC(=O)[C@H](C)/C=C(\C)[C@@H](O)[C@@H](OC)C(=O)[C@H](C)C[C@H](C)/C=C/C=C/C=C/1C [Everolimus, everolimus]
Cmin, Cmax and AUC0-τ with 10 mg/day relative to 5 mg/day ([1]; 10 mg/day versus 5 mg/day): approximately 2 fold
Tmax ([1]; 5 mg/day, oral 5 mg/day, n = 12): 3 h
Tmax ([1]; 10 mg/day, oral 10 mg/day, n = 12): 2 h
Cmax ([1]; oral 5 mg/day): 28.8 ng/mL
AUC ([1]; oral 5 mg/day): 316 ng·h/mL
Cmax ([1]; oral 10 mg/day): 53.8 ng/mL
AUC ([1]; oral 10 mg/day): 589 ng·h/mL
CL/F, mean (± standard deviation) ([1]; oral 5 mg/day): 16.7 (±5.6) L/h
Tmax, median (range) ([1]; oral 5 mg/day, n = 12): 2.96 (1.00-4.00) h
Cmin (pre-dose trough concentration) ([1]; oral 5 mg/day): 8.3 (46.8) ng/mL
CL/F, mean (± standard deviation) ([1]; oral 10 mg/day): 18.2 (±7.2) L/h
Cmin (pre-dose trough concentration) ([1]; oral 10 mg/day): 14.5 (47.9) ng/mL
Time at which maximum blood concentrations were generally reached ([1]; oral 5 and 10 mg/day): 2 to 4 h
Time to steady-state levels ([1]; oral 5 and 10 mg/day): ≤ 8 days
Time to steady-state levels ([1]; oral 5 and 10 mg/day, listed as everolimus): 8 days
Fatigue suspected to be related to everolimus, patients ([2]; 5 mg/day cohort): 16.7%
Hyperglycemia (increased blood glucose) suspected to be related to everolimus, patients ([2]; 5 mg/day cohort): 16.7%
Patients with grade 3 adverse events suspected to be related to everolimus ([2]; 5 mg/day cohort): 25%
Deaths during the study ([2]; 5 mg/day cohort): 1
Adverse events with suspected relationship to everolimus: Total, All grades ([2]; 5 mg/day, n = 12): 12 (100) n (%)
Adverse events with suspected relationship to everolimus: Total, Grade 3 ([2]; 5 mg/day, n = 12): 3 (25.0) n (%)
Adverse events with suspected relationship to everolimus: Total, Grade 4 ([2]; 5 mg/day, n = 12): 0 n (%)
Anemia, All grades [2, 4]: 1 (8.3) n (%)
Anemia, Grade 3 [2, 4]: 1 (8.3) n (%)
Anemia, Grade 4 [2, 4]: 0 n (%)
Blood alkaline phosphatase increased, All grades [2, 4]: 1 (8.3) n (%)
Blood alkaline phosphatase increased, Grade 3 [2, 4]: 0 n (%)
Blood alkaline phosphatase increased, Grade 4 [2, 4]: 0 n (%)
Fatigue, All grades [2, 4]: 2 (16.7) n (%)
Fatigue, Grade 3 [2, 4]: 0 n (%)
Fatigue, Grade 4 [2, 4]: 0 n (%)
Hyperglycemia, All grades [2, 4]: 2 (16.7) n (%)
Hyperglycemia, Grade 3 [2, 4]: 0 n (%)
Hyperglycemia, Grade 4 [2, 4]: 0 n (%)
Hypokalemia, All grades [2, 4]: 3 (25.0) n (%)
Hypokalemia, Grade 3 [2, 4]: 1 (8.3) n (%)
Hypokalemia, Grade 4 [2, 4]: 0 n (%)
Thrombocytopenia, All grades [2, 4]: 2 (16.7) n (%)
Thrombocytopenia, Grade 3 [2, 4]: 1 (8.3) n (%)
Thrombocytopenia, Grade 4 [2, 4]: 0 n (%)
Upper respiratory tract infection, All grades [2, 4]: 1 (8.3) n (%)
Upper respiratory tract infection, Grade 3 [2, 4]: 1 (8.3) n (%)
Fatigue suspected to be related to everolimus, patients ([2]; 10 mg/day cohort): 33.3%
Hyperglycemia (increased blood glucose) suspected to be related to everolimus, patients ([2]; 10 mg/day cohort): 41.7%
Patients with grade 3 adverse events suspected to be related to everolimus ([2]; 10 mg/day cohort): 25%
Deaths during the study ([2]; 10 mg/day cohort): 2
Adverse events with suspected relationship to everolimus: Total, All grades ([2]; 10 mg/day, n = 12): 12 (100) n (%)
Adverse events with suspected relationship to everolimus: Total, Grade 3 ([2]; 10 mg/day, n = 12): 3 (25.0) n (%)
Adverse events with suspected relationship to everolimus: Total, Grade 4 ([2]; 10 mg/day, n = 12): 0 n (%)
Anemia, All grades [2, 5]: 3 (25.0) n (%)
Anemia, Grade 3 [2, 5]: 0 n (%)
Anemia, Grade 4 [2, 5]: 0 n (%)
Blood alkaline phosphatase increased, All grades [2, 5]: 3 (25.0) n (%)
Blood alkaline phosphatase increased, Grade 3 [2, 5]: 1 (8.3) n (%)
Blood alkaline phosphatase increased, Grade 4 [2, 5]: 0 n (%)
Fatigue, All grades [2, 5]: 4 (33.3) n (%)
Fatigue, Grade 3 [2, 5]: 1 (8.3) n (%)
Fatigue, Grade 4 [2, 5]: 0 n (%)
Hyperglycemia, All grades [2, 5]: 5 (41.7) n (%)
Hyperglycemia, Grade 3 [2, 5]: 1 (8.3) n (%)
Hyperglycemia, Grade 4 [2, 5]: 0 n (%)
Hypokalemia, All grades [2, 5]: 2 (16.7) n (%)
Hypokalemia, Grade 3 [2, 5]: 0 n (%)
Hypokalemia, Grade 4 [2, 5]: 0 n (%)
Thrombocytopenia, All grades [2, 5]: 3 (25.0) n (%)
Thrombocytopenia, Grade 3 [2, 5]: 0 n (%)
Thrombocytopenia, Grade 4 [2, 5]: 0 n (%)
Upper respiratory tract infection, All grades [2, 5]: 0 n (%)
Upper respiratory tract infection, Grade 3 [2, 5]: 0 n (%)
Upper respiratory tract infection, Grade 4 [2, 5]: 0 n (%)
Noninfectious pneumonitis ([2]; 5 and 10 mg/day cohorts): not observed
Tolerability ([2]; 5 or 10 mg/day, Chinese patients with advanced solid tumors): well tolerated
Patients reporting ≥1 adverse event ([2]; both cohorts, 24 patients in total): 24 patients
Grade 3 upper respiratory tract infection, patients ([2]; whole study, reversible with remedial treatment and interruption of everolimus): 1 patient
Progressive disease as best overall response, patients (advanced solid tumors; 5 mg/day cohort): 16.7%
Best overall tumor response stable disease, patients (advanced solid tumors; 5 mg/day cohort): 83% and 83.3%
Median duration of stable disease (advanced solid tumors; 5 mg/day cohort, 95% CI 2.89-8.05): 5.03 months
Progressive disease as best overall response, patients (advanced solid tumors; 10 mg/day cohort): 41.7%
Best overall tumor response stable disease, patients (advanced solid tumors; 10 mg/day cohort): 50%
Median duration of stable disease (advanced solid tumors; 10 mg/day cohort, 95% CI 3.58-not reached): 6.08 months
Median duration of stable disease (advanced solid tumors; 4 patients with RCC, at data cutoff, 95% CI 6.08-11.1+): not yet been reached
Complete or partial responses (advanced solid tumors; 5 and 10 mg/day cohorts, RECIST): No complete or partial responses
Patients with stable disease (advanced solid tumors; NSCLC): 4 patients
Patients with stable disease (advanced solid tumors; RCC): 4 patients
Patients with stable disease (advanced solid tumors; breast cancer): 3 patients
Patients with stable disease (advanced solid tumors; gastric cancer): 5 patients
Discontinued: Death ([3]; 5 mg/day): 0 n (%)
Discontinued: Disease progression ([3]; 5 mg/day): 9 (75.0) n (%)
Discontinued: Death ([3]; 10 mg/day): 2 (16.7) n (%)
Discontinued: Disease progression ([3]; 10 mg/day): 7 (58.3) n (%)
